Tested on: UPS activation
Assay: Ub^G76V-GFP reporter cells (GFP+ cells) in osteoclast cultures and on pre-incubated bone slices
Format: cell-based, mouse
Conditions: BM cells from Ub^G76V-GFP mice on bone slices pre-incubated with compound
Description: FIG. 5A is a scheme of an exemplary synthesis of compound BP-Btz1. FIG. 5B is a series of images of bone slices pre-incubated with 1 μM BP-Btz1, Btz, or bisphosphonate (BP) overnight. Drug solutions were removed and bone slices were washed with PBS extensively. […] (BM) cells from UB^G76V-GFP mice were cultured on bone slices in the presence of M-CSF and RANKL for 9 days. Top images (a): GFP^+ cells were observed under a fluorescence microscope and GFP signal intensity was quantified. Middle images (b): bone slices were fixed and subjected to TRAP staining for osteoclasts (OCs). OC #/slice were counted. Bottom images (c): cells were removed from slices. Toluidine blue staining was performed and pit areas/slice were counted. FIG. 5C is a series of images of murine BM cells cultured and stained for ALP. FIG. 5D is a series of images of human MSCs cultured and stained for ALP. Murine BM cells and human MSCs were cultured in the OB-inducing medium plus different concentrations of BP-Btz1 or Btz for 4 or 6 days, respectively. Cells were stained for ALP. The ALP^+ areas were measured by Image J. *P<0.05 vs. Btz-treated cells.
1. Ub^G76V-GFP mice in B6 background (Stock #008111, Jax lab) are generated using previously described methods (Lindsten et al., 2003, Nat. Biotech. 21:897-902). The Ub^G76V-GFP transgene was designed with a chicken beta-actin promoter and CMV immediate early enhancer upstream of a GFP fused to a mutant ubiquitin moiety (Ub^G76V), a constitutively active proteasome degradation signal. Following proteasome inhibitor administration, Ub^G76V accumulates and GFP fluorescence is readily apparent. GFP^+ OCs were detected at 4 and 8 hrs after adding Btz to OC cultures, which disappeared at 24 hrs. […] 2. OC formation and resorption assays and data analyses are performed as described herein (FIG. 4) and using previously described methods (Zhang et al., 2014, J. Clin. Invest. 124:3200-3214; Xiu et al., 2014, J. Clin. Invest. 124:297-310). […] The number and area of OCs and resorption pits are assessed. The appearance, intensity and distribution of GFP^+ cells on bone slices and plastic surrounding bone slices during OC formation is observed and recorded. 3. OB differentiation. Third passages of BM stromal cells are used as MPCs, as previously described (Shu et al., 2013, J. Bone Min. Res. 28:1925-1935; Zhang et al., 2014, J. Clin. Invest. 124:3200-3214). MPCs are cultured on plastic plates in OB-inducing medium±BP-Btz conjugates, Btz or BP (0.1-100 nM) for 1-3 wks. Plates are subjected to alkaline phosphatase (ALP) and alizarin red staining, and qPCR analyses. Area of ALP^+ and mineralized bone nodule, and the expression levels of OB marker genes (ALP, osteocalcin, Runx2) are measured. GFP^+ cells during OB differentiation are observed as in OCs. In a parallel experiment, human MSCs (from Lonza) are treated with BP-Btz, Btz, or BP in OB-inducing medium and their effects examined on OB differentiation as show in FIGS. 5C and 5D. 4. Western blot/Ub assays. OCPs or MPCs are treated with a preferred dose of leading BP-Btz, Btz and BP. OCP lysates are subjected to Western blot using α-NF-κB members and TRAF6 Abs. OB lysates are subjected to Western blot with α-ubiquitin, Runx2, or JunB Abs, and Ub assays using UbiQapture matrix (Biomol) to pull down Ub-proteins followed by α-Runx2 and JunB Abs using previously described methods (Zhao et al., 2010, J. Bone Min. Res. 25:1246-1256; Zhao et al., 2011, Stem cells 29:1601-1610).

With NCC(P(=O)(O)O)P(=O)(O)O [BP] the “GFP+ cells on pre-incubated bone slices” value was “not”.

From patent publication US11497813B2, “Bortezomib conjugates and methods using same” (Frank EBETINO et al., priority 2015, dated 2022)
